Each compound was assayed on U251-MG cells (assay: Half-maximal cell-inhibitory concentration on U251-MG cells (CCK-8)). Conditions: Homo sapiens, U-251, U251-MG cells (DHX33-overexpressing), 48 hours incubation, read-out: IC50, half-maximal inhibitory concentrations of compounds on U251-MG cell.
Assay type: cell-based
Description: U251-MG cells were purchased from the cell bank of the Chinese Academy of Sciences. Cells were cultured in MEM medium containing 10% fetal bovine serum (FBS), 2 mM L-glutamine, streptomycin and penicillin. The growth conditions were set as follows: a humidified cell incubator (37° C., 5% CO2). Cells were passaged every 3 days and were discarded after 10 passages.
U251-MG cells (a DHX33-overexpressing cancer cell strain) were seeded on a 96-well plate at 1×10^4 cells/100 μl/well. After the cells were completely attached, the compounds were added to the cell culture medium at a concentration of 5 nM, 10 nM, 25 nM, 50 nM, 100 nM, 250 nM, 500 nM, 1000 nM, 2000 nM, 5000 nM, 10 μM or 20 μM, and the resulting mixture was uniformly mixed with a multichannel pipette. After the cells were incubated with the compound for 48 hours, CCK-8 reagent (Yeasen Biotechnology (Shanghai) Co., Ltd.) was added to the medium in the 96-well plate in accordance with the standard procedure. After being incubated for 2 hours, the plate was read with a microplate reader (OD=450 nm). The experiment was repeated three times, the inhibiton curve of the compound at different concentrations was plotted, and the half-maximal inhibitory concentration (IC50) of the compound was calculated.

IC50	SMILES
100 to 1000 nM	COc1ccc2nc(N(C)C(=O)c3cc(C)n(-c4sc(C)cc4C#N)c3C)[nH]c2c1 [AB29560]
100 to 1000 nM	Cc1cc(C#N)c(-n2c(C)cc(C(=O)Nc3nc4ccc(F)cc4[nH]3)c2C)s1 [AB29556]
100 to 1000 nM	COc1ccc2nc(NC(=O)c3cc(C)n(-c4sc(C)cc4C#N)c3C)n(C)c2c1 [AB29561]
1000 to 5000 nM	Cc1cc(C#N)c(-n2c(C)cc(C(=O)Nc3nc4ccncc4[nH]3)c2C)s1 [AB29555]
100 to 1000 nM	COCn1c(NC(=O)c2cc(C)n(-c3sc(C)cc3C#N)c2C)nc2cc(OC)ccc21 [AB29563]
100 to 1000 nM	COCn1c(NC(=O)c2cc(C)n(-c3sc(C)cc3C#N)c2C)nc2ccc(OC)cc21 [AB29562]
< 100 nM	COc1cnc2nc(NC(=O)c3cc(C)n(-c4sc(C)cc4C#N)c3C)[nH]c2c1 [AB29566]
1000 to 5000 nM	COc1cccc2nc(NC(=O)c3cc(C)n(-c4sc(C)cc4C#N)c3C)[nH]c12 [AB29559]
100 to 1000 nM	COc1cc2cc(NC(=O)c3cc(C)n(-c4sc(C)cc4C#N)c3C)[nH]c2cn1 [AB29573]
< 100 nM	COc1cc2[nH]c(NC(=O)c3cc(C)n(-c4sc(C)cc4C#N)c3C)nc2cn1 [AB29558]
1000 to 5000 nM	COc1ccc2nc(NC(=O)c3cc(C)n(-c4sc(C)cc4C#N)c3C)n(COC(=O)C(C)(C)C)c2c1 [AB29564]
1000 to 5000 nM	COc1ccc2nc(NC(=O)c3cc(C)n(Cc4cccs4)c3C)[nH]c2c1 [AB29552]
1000 to 5000 nM	Cc1cc(C#N)c(-n2c(C)cc(C(=O)Nc3nc4cccnc4[nH]3)c2C)s1 [AB29554]
1000 to 5000 nM	Cc1cc(C#N)c(-n2c(C)cc(C(=O)Nc3nc4ccc(OC(F)(F)F)cc4[nH]3)c2C)s1 [AB29572]
100 to 1000 nM	COc1ccc2nc(C(=O)Nc3cc(C)n(-c4sc(C)cc4C#N)c3C)[nH]c2c1 [AB29540]
100 to 1000 nM	Cc1cc(C#N)c(-n2c(C)cc(C(=O)Nc3nc4ccccc4[nH]3)c2C)s1 [AB29553]
1000 to 5000 nM	COc1ccc2c(c1)nc(NC(=O)c1cc(C)n(-c3sc(C)cc3C#N)c1C)n2COC(=O)C(C)(C)C [AB29565]
100 to 1000 nM	Cc1cc(C#N)c(-n2c(C)cc(C(=O)Nc3nc4ccc(Cl)cc4[nH]3)c2C)s1 [AB29557]
100 to 1000 nM	COc1ccc2nc(NC(=O)c3cc(C)n(-c4oc(C)nc4C#N)c3C)[nH]c2c1 [AB29522]

These compounds were tested against T1, DHX33 protein (Mus musculus, UniProt Q80VY9) (assay: Inhibition of the helicase activity of DHX33 protein in vitro). Conditions: recombinant DHX33 protein, compound 1-1000 nM, 37° C. 60 minutes; read-out: IC50, inhibitory effects of the compounds on the helicase activity of DHX33 protein.
T1 construct: 0.25 μg of purified full-length DHX33 protein; made in house; host or cells: E. coli BL-21pLysS (DE3)
T1 sequence (Q80VY9 1-698): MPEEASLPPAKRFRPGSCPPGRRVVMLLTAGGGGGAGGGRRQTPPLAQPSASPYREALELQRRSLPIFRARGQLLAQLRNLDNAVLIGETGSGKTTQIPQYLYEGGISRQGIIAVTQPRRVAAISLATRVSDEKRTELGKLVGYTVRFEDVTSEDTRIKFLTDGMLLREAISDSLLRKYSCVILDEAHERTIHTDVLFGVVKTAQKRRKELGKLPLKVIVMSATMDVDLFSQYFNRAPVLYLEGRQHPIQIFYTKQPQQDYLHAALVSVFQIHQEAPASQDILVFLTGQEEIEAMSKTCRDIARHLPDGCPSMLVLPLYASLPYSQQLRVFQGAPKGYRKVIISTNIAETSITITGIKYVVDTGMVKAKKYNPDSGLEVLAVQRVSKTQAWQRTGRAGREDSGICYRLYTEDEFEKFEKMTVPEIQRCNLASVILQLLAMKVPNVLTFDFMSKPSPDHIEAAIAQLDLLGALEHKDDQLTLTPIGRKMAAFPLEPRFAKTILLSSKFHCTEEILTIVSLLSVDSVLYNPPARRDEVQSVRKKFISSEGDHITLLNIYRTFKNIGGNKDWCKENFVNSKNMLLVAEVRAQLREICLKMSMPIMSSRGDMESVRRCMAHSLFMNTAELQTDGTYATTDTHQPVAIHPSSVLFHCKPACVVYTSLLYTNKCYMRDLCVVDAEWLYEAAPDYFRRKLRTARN
Assay type: biochemical
Description: Biochemistry. 2019;58 (4):250-8. RNA helicase gene (mouse DHX33 gene) was cloned into a pET32M-3C vector (between BamH I/Not I restriction sites). Afterward, the plasmid was transformed into BL-21pLysS (DE3) E. coli. 0.5 mM isopropyl 1-thio-P-D-galactopyranoside (IPTG) was added, and the expression of the recombinant protein was induced at 16° C. for 16 hours. Cells were allowed to precipitate and were resuspended in a cell lysis buffer [50 mM Tris-HCl (pH7.2), 150 mM NaCl, 1% Triton X-100, and 50 mM imidazole supplemented with a protease inhibitor]. Thereafter, cells were subjected to ultrasonic treatment and centrifuged at a rotation speed of 13000 rpm for 25 minutes. The supernatant was incubated with the nickel-nitrilotriacetic acid beads equilibrated in Tris buffer, followed by sufficient washing. Thereafter, the purified protein was eluted with a solution of 300 mM imidazole in Tris buffer, and was then subjected to dialysis against an imidazole-free Tris buffer at 4° C. overnight.
The components involved in the reaction for testing the helicase activity were added to a 96-well opaque white plate. The method was outlined as follows. The 96-well plate was coated with neutravidin at a final concentration of 10 μg/mL (100 μL/well) overnight at 4° C. Afterwards, the neutravidin-coated plate was blocked with 100 μL of 0.1% (w/v) BSA (dissolved in normal PBS) at 22° C. for 2 hours. After washing, a DNA duplex (2.5 ng) that was resulted from the annealing of two single-stranded DNA oligonucleotides (the sequence of one single strand was biotin-labeled 5′-[…]-3; and the sequence of the other single strand was DIG-labeled 5′-[…]-3′) [the annealing reaction was carried out in PBS (pH 7.0) containing 1M NaCl] was added, and the resulting mixture was incubated at 22° C. for 4 hours. After the addition of 90 μL of the reaction mixture, the helicase reaction was initiated [0.25 μg of purified full-length DHX33 protein, dissolved in 25 mM 4-MOPS (pH 7.0), 5 mM ATP, 2 mM DTT, 3 mM MnCl2 and 100 μg/mL BSA]. The reaction was conducted at 37° C. for 60 minutes. After being washed, each well was incubated with a blocking solution [10% (w/v) BSA in 0.1 M maleic acid and 0.15 M NaCl (pH 7.5)] for 30 minutes, and was then incubated with 20 μL of antibody solution (anti-DIG-AP, Roche, in blocking buffer) for 30 minutes. After being washed with 100 μL of detection buffer [0.1 M Tris-HCl and 0.1 M NaCl (pH 9.5)], each well was added with 1 μL of chemiluminescent substrate (CSPD-0.25 mM), and the plate was incubated at 17° C. for 5 minutes. […] The remaining DIG-AP marker control in each well was counted for 10 minutes by a luminescence multi-well plate reader (Enspire, PerkinElmer). Higher reading indicated weaker helicase activity. […]

IC50	SMILES
20 to 100 nM	Cc1cc(C#N)c(-n2c(C)cc(C(=O)Nc3nc4ccc(F)cc4[nH]3)c2C)s1 [AB29556]
≥ 400 nM	COc1cccc2nc(NC(=O)c3cc(C)n(-c4sc(C)cc4C#N)c3C)[nH]c12 [AB29559]
< 20 nM	COc1cc2[nH]c(NC(=O)c3cc(C)n(-c4sc(C)cc4C#N)c3C)nc2cn1 [AB29558]
≥ 400 nM	Cc1oc(-n2c(C)cc(/C=C(\C#N)c3nc4ccccc4[nH]3)c2C)c(C#N)c1C [Compound as control, reference compound]

Reference: US20240182454A1, “Polycyclic Compound for Inhibiting RNA Helicase DHX33, and Application of Compound” (Shenzhen KeYe Life Technologies, Co., Ltd, priority 2021, published 2024)
